Assay results: US20050239656A1, “Pyridine compounds or salts thereof and herbicides containing the same” (priority 2002, published 2005)

Experiments:
barnyardgrass [1] = test: Test Example 2: soil surface treatment, upland pot test; format: in vivo, Echinochloa crus-galli L.; conditions: observed 20th to 28th day
Excerpt: (§1) Upland field soil was put into a 1/170,000 ha pot, and seed of various plants (barnyardgrass, crabgrass, green foxtail, redroot pigweed, prickly sida, velvetleaf, rice, wheat, corn, soybean) were sown. On the 1st day after the sowing, a wettable powder or emulsifiable concentrate having the compound of the present invention formulated in accordance with a usual formulation method, was weighed so that the active ingredient would be a predetermined amount, and diluted with water in an amount of 1,500 L/ha. The herbicide thus adjusted was applied by a small size sprayer for soil surface treatment. On the 20th to 28th days after the application of the herbicide, the growth of the respective plants was visually observed, and the herbicidal effects were evaluated by the growth controlling degrees (%) ranging from 0 (equivalent to the non-treated plot) to 100 (complete kill), whereby the results shown in Table 4, were obtained.

crabgrass = test: as above; format: in vivo, Digitaria sanguinalis L.; conditions: observed 20th to 28th day
Excerpt: as §1

green foxtail = test: as above; format: in vivo, Setaria viridis L.; conditions: observed 20th to 28th day
Excerpt: as §1

redroot pigweed = test: as above; format: in vivo, Amaranthus retroflexus L.; conditions: observed 20th to 28th day
Excerpt: as §1

prickly sida = test: as above; format: in vivo, Sida spinosa L.; conditions: observed 20th to 28th day
Excerpt: as §1

velvetleaf = test: as above; format: in vivo, Abutilon theophrasti MEDIC.; conditions: observed 20th to 28th day
Excerpt: as §1

rice = test: as above; format: in vivo, Oryza sativa L.; conditions: observed 20th to 28th day
Excerpt: as §1

corn = test: as above; format: in vivo, Zea mays L.; conditions: observed 20th to 28th day
Excerpt: as §1

soybean = test: as above; format: in vivo, Glycine max Merr.; conditions: observed 20th to 28th day
Excerpt: as §1

barnyardgrass [2] = test: Test Example 3: paddy pot test, application under submerged conditions; format: in vivo, Echinochloa crus-galli L.; conditions: active ingredient 250 g/ha; submerged application at 0.5 leaf stage; visually observed 14 days after application; 0 = non-treated, 100 = complete kill
Procedure, shortened: (§2)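 After sowing seeds and planting wapato tubers in flooded paddy soil, an aqueous dilution of the formulated compound was added to the 3–4 cm flood water at early leaf stage. Percent growth control relative to the untreated plot was assessed visually on day 14.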

japanese bulrush = test: as above; format: in vivo, Scirpus juncoides; conditions: submerged application at 0.5 leaf stage, visually observed 14 days after application, 0 = non-treated, 100 = complete kill
Procedure, shortened: as §2

japanese ribbon wapato = test: as above; format: in vivo, Sagittaria pygniaea; conditions: submerged application at primary leaf stage, visually observed 14 days after application, 0 = non-treated, 100 = complete kill
Procedure, shortened: as §2

rice (var. Nihonbare) = test: Test Example 3: paddy pot test, transplanted rice; format: in vivo, Oryza sativa L.; conditions: applied 4th day after transplantation, visually observed 21st day after application, 0 = non-treated, 100 = complete kill
Procedure, shortened: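 Rice (2-leaf stage) was transplanted 3 cm deep into puddled, leveled paddy soil under 3–4 cm flooding. On day 4 after transplanting, diluted wettable powder or emulsifiable concentrate was pipetted onto the water at a predetermined active-ingredient dose. Growth control (0 = untreated, 100 = complete kill) was scored visually 21 days later.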

SMILES	Growth controlling degree (%) Barnyardgrass (barnyardgrass [1]; active ingredient 500 g/ha) [%]	Growth controlling degree (%) Crabgrass (crabgrass; active ingredient 500 g/ha) [%]	Growth controlling degree (%) Green foxtail (green foxtail; active ingredient 500 g/ha) [%]	Growth controlling degree (%) Redroot pigweed (redroot pigweed; active ingredient 500 g/ha) [%]	Growth controlling degree (%) Prickly sida (prickly sida; active ingredient 500 g/ha) [%]	Growth controlling degree (%) Velvetleaf (velvetleaf; active ingredient 500 g/ha) [%]	Growth controlling degree (%) Rice (rice; active ingredient 500 g/ha) [%]	Growth controlling degree (%) Corn (corn; active ingredient 500 g/ha) [%]	Growth controlling degree (%) Soyabean (soybean; active ingredient 500 g/ha) [%]	Growth controlling degree (%) Barnyardgrass (barnyardgrass [2]) [%]	Growth controlling degree (%) Japanese bulrush (japanese bulrush; active ingredient 250 g/ha) [%]	Growth controlling degree (%) Japanese ribbon wapato (japanese ribbon wapato; active ingredient 250 g/ha) [%]	Growth controlling degree (%) Rice (rice (var. Nihonbare); active ingredient 250 g/ha) [%]	other results
CC(C)C(c1cnccc1C(F)(F)F)N(C)C(=O)Cc1cc(F)cc(C(F)(F)F)c1 (centres unmarked) [Compound I-97]	60	98	100	60	90	40	40	20	10	100	80	0	0	
CCN(C(=O)Cc1ccc(F)cc1)C(c1cnccc1C(F)(F)F)C(C)C (centres unmarked) [Compound I-99]	100	98	100	40	95	40	20	40	30	100	98	90	0	
CCN(C(=O)Cc1ccc(Cl)cc1)C(c1cnccc1C(F)(F)F)C(C)C (centres unmarked) [Compound I-100]	98	98	100	10	70	10	30	30	0	100	95	30	10	
CCN(C(=O)Cc1ccccc1)C(c1cnccc1Cl)C(C)C (centres unmarked) [Compound I-102]	100	98	100	20	60	0	10	35	20	98	100	60	10	
Cc1ccc(OCC(=O)N(C)C(c2cnccc2C(F)(F)F)C(C)C)cc1 (centres unmarked) [Compound I-239]	60	95	90	70	80	30	0	10	10	98	98	70	0	
CC(C)C(c1cnccc1C(F)(F)F)N(C)C(=O)Cc1ccc(Cl)cc1 (centres unmarked) [I-23]														Growth controlling degree (%) Barnyardgrass (barnyardgrass [1]; active ingredient 250 g/ha): 95%; Growth controlling degree (%) Crabgrass (crabgrass; active ingredient 250 g/ha): 98%; Growth controlling degree (%) Green foxtail (green foxtail; active ingredient 250 g/ha): 98%; Growth controlling degree (%) Redroot pigweed (redroot pigweed; active ingredient 250 g/ha): 85%; Growth controlling degree (%) Prickly sida (prickly sida; active ingredient 250 g/ha): 98%; Growth controlling degree (%) Velvetleaf (velvetleaf; active ingredient 250 g/ha): 60%; Growth controlling degree (%) Rice (rice; active ingredient 250 g/ha): 0%; Growth controlling degree (%) Corn (corn; active ingredient 250 g/ha): 10%; Growth controlling degree (%) Soyabean (soybean; active ingredient 250 g/ha): 20%; Growth controlling degree (%) Japanese bulrush (japanese bulrush; active ingredient 500 g/ha): 90%; Growth controlling degree (%) Japanese ribbon wapato (japanese ribbon wapato; active ingredient 500 g/ha): 85%; Growth controlling degree (%) Rice (rice (var. Nihonbare); active ingredient 500 g/ha): 30%
